Measured values reported in patent US20050085528A1 (priority 2003, published 2005).

Assays:
Replicon cells [1] = assay: cells; conditions: read-out: Cytostatic (IC50)
in vitro = conditions: replicon cells (lucubineo cells)
[2] = tested on: HCV replicon (Huh 5-2 [I389luc-ubi-neo-NS3-3′/5.1]); assay: microbe, parasite or virus in culture; assay type: cell-based; conditions: for IC50: Hepatitis C virus, Huh-5-2, luciferase, 72 hours statin treatment; for Inhibition of luciferase expression in replicon cells (in words): FIG. 2
Replicon cells [3] = tested on: Replicon cells
HCV replicon RNA = assay: Quantitative RT-PCR (Taqman) of replicon RNA; assay type: cell-based; conditions: FIG. 2A
Protocol: Statin-treated cells in the duplicate clear plate were analysed for cytotoxicity by addition of 10 μL WST-1 reagent (Roche Biosciences) to each well and incubated for 37° C. for 60 minutes. After vigorous shaking, the plate was read at 450 nm. The supernatent was removed and the monolayer washed with PBS prior to addition 100 μL RLT lysis buffer (Qiagen RNAeasy kit) to each test well, followed by vigorous resuspension to ensure uniform lysis of all cells. Total RNA was extracted according to Qiagen RNAeasy protocols recommended by manufacturer. Briefly, 0.1 μg total RNA was reverse transcribed using random hexamers and 20% cDNA produced was used as a template in a Taqman reaction (Universal PCR Master Mix protocol p\n 43044449 Rev B).
These procedures are described in Perkin Elmer Biosystems User Bulletin 2. Briefly, the quantity of replicon RNA in a given sample was determined relative to the untreated control and normalised with respect to actin. Having established that the efficiencies of the replicon and actin PCR reactions were similar (data not shown), the relative quantity of replicon RNA was described by 2^−ΔΔCt where, ΔΔCt=ΔCt(test)−ΔCt(control) ΔCt(test)[…]−Ct(actin) and ΔCt(control)=Ct(control)−Ct(actin) Cholesterol Biosynthesis Assay

[4] = 6- to 12-month course; cited from earlier work
EMCV IRES = assay: Green fluorescent protein assay (pIRES2-EGFP); assay type: cell-based, Encephalomyocarditis virus; conditions: atorvastatin concentrations which reduced HCV replicon activity (10 uM, FIG. 5)
Protocol: Replicon cells were electroporated in cytomix buffer at 10^7 cells/mL at 960 uF, 270 V with varying amounts pIRES2-EGFP. Cell viability was monitored by trypan blue staining and cell counting. Aliquots of cells (2×10^4) were plated out in clear bottomed black 96 well plates and incubated for 24 hours. The cells were rinsed with PBS and fluorescence output read using an Analyst HT (LJL Biosystems).
Impairment of this function was examined in the presence of statins. Replicon cells were transfected with varying amounts of pIRES2-EGFP in which the green fluorescent protein reporter is expressed by a EMCV IRES.

Replicon cells [5] = conditions: @ 10 μM

Compound | IC50 (Replicon cells [1]) | IC50 at 72 h (in vitro) | IC50 [2] | also measured
CCC(C)(C)C(=O)O[C@H]1C[C@@H](C)C=C2C=C[C@H](C)[C@H](CC[C@@H]3C[C@@H](O)CC(=O)O3)[C@H]21 [Simvastatin] | 28 µM | 64.7 µM | – | –
COCc1c(C(C)C)nc(C(C)C)c(/C=C/[C@@H](O)C[C@@H](O)CC(=O)O)c1-c1ccc(F)cc1 [Cerivastatin] | 5.5 µM | 4.9 µM | 1.1 µM | –
CC[C@H](C)C(=O)O[C@H]1C[C@H](O)C=C2C=C[C@H](C)[C@H](CC[C@@H](O)C[C@@H](O)CC(=O)O)[C@H]21 [Pravastatin] | – | – | 322 µM | Cytostatic, % at one concentration (Replicon cells [3]): 25% @ 500,000 μM
CC[C@H](C)C(=O)O[C@H]1C[C@@H](C)C=C2C=C[C@H](C)[C@H](CC[C@@H]3C[C@@H](O)CC(=O)O3)[C@H]21 [Lovastatin] | 89.3 µM | 158 µM | 7.9 µM | Inhibition of luciferase expression in replicon cells (in words) [2]: dose dependent inhibition; Replicon RNA by RT-PCR, normalised to beta actin (HCV replicon RNA): quantitative reduction of replicon RNA
Alpha interferon | – | – | – | Patients in whom an autoimmune condition is triggered [4]: about 2%
CC(C)c1c(C(=O)Nc2ccccc2)c(-c2ccccc2)c(-c2ccc(F)cc2)n1CC[C@@H](O)C[C@@H](O)CC(=O)O (relative stereo) [Atorvastatin, [R-(R*,R*)]-2-(4-fluorophenyl)-b,d-dihydroxy-5-(1-methylethyl)-3-phenyl-4[(phenylamino)carbonyl]-IH-pyrrole-1-heptanoic acid] | 2.5 µM | – | 4.1 µM | Inhibition of luciferase expression in replicon cells (in words) [2]: increased antiviral activity compared to lovastatin; Effect on GFP signal driven by EMCV IRES (EMCV IRES): no effect; Cytotoxicity, % at one concentration (Replicon cells [5]): 18.3% @ 10 μM
C[C@@](O)(CCO)CC(=O)O [MVA, mevalonic acid] | – | – | – | Rescue of atorvastatin inhibition of HCV replicon activity by MVA ([2]; 14 μM MVA, 10 uM atorvastatin, FIG. 3A): begins to alleviate the atorvastatin inhibition; Response of control HCV replicon cells to MVA ([2]; absence of statin, FIG. 3B): do not respond; Rescue of atorvastatin inhibition of HCV replicon activity by MVA ([2]; further addition of MVA, 10 μM atorvastatin): completely restores replicon activity
